Measurements from US10220040B2, “Compounds, compositions and methods useful for cholesterol mobilization” (Cerenis Therapeutics Holding SA, priority 2010, dated 2019).

Test system: HepG2 cells
Experiment: In vitro HDL internalization in human hepatocytes (HepG2) cells
Type: cell-based
Conditions: compound 1 μM; 3H-labeled HDL 75 μg/ml, 10 min at 37° C.
Protocol: FIG. 3: Single-dose effect of the selected molecules on HDL internalization by HepG2 cells. Cells were incubated for 10 min at 37° C. with 75 μg/ml ^3H cholesterol Cholesteryl Oleate [Cholesteryl-1,2-^3H(N)] HDL, Reference Compound (100 nM) and illustrative compounds of the invention (1 μM). Data are expressed as the percentage of internalized radioactivity with respect to the control value (set as […]). *p<0.005, **p<0.0001.
The effect of illustrative compounds of the invention on HDL internalization was measured by an in vitro assay on HepG2 cells (FIG. 3). ^3H cholesterol Cholesteryl Oleate [Cholesteryl-1,2-^3H(N)] labeled HDL] (available from PerkinElmer http://www.perkinelmer.com/Catalog/Product/ID/NET746L001MC) was loaded on HepG2 cells in presence of illustrative compounds of the invention (final concentration 1 μM). […] It was determined that Compounds XIa, IIc, IIa and Ih (R-isomer) have a strong impact on HDL uptake by HepG2 cells; Compounds IIb, VIIa and VIIIa have a modest impact on HDL uptake by HepG2 cells.
^3H cholesterol Cholesteryl Oleate [Cholesteryl-1,2-^3H(N)] (Perkin Elmer) solution (250 μL) was dried and resuspended in acetone (250 μL). The solution was mixed with Lipoprotein delipidated serum (20 mL at 40 mg/mL) and DTNB (0.4 μM final concentration). HDL (7 mg) was added and incubated overnight at 4° C. on gentle rotation. The HDL was purified on KBr gradient as previously described.
Hepatocytes were plated at 300,000 cells/well in 6×-well plates. Two days later, the cells were washed once with DMEM and incubated for 1 hour in DMEM at 37° C. 75 μg of radio-labeled HDL (6500 dpm/μg) were added to the medium and incubated for 10 minutes at 37° C. The cells were washed once with DMEM (2 mL) and incubated for 1.5 hours in DMEM at 4° C., whereupon dissociation occurred. Then the cells were washed once more with cold DMEM (2 mL) and the incorporated cholesterol ether was retrieved from HepG2 cells by the addition of hexane:isopropanol (3:2) solution (1 mL).

CN(C)c1ncc(CN2CCC(c3cc(O)nc(N4CCOCC4)n3)CC2)cn1 [Compound IIa, 6-[1-(2-Dimethylaminopyrimidin-5-ylmethyl)-piperidin-4-yl]-2-morpholin-4-yl-pyrimidin-4-ol]
impact on HDL uptake by HepG2 cells: strong impact
